Patent US11780830B2, “Triazolone derivatives or salts thereof and pharmaceutical compositions comprising the same” (YUHAN CORPORATION, priority 2018, dated 2023)

Tests used:
Type in all cases: biochemical
[1] = target: T1, recombinant human DAO (diamine oxidase) (Homo sapiens, UniProt P19801); assay: Activity on recombinant human DAO, method similar to the VAP-1 assay; settings: substrate 1 mM putrescine; read-out: Inhibitory Activity (IC50, nM) DAO
T1 construct: purchased R&D systems
T1 sequence (P19801 20-751): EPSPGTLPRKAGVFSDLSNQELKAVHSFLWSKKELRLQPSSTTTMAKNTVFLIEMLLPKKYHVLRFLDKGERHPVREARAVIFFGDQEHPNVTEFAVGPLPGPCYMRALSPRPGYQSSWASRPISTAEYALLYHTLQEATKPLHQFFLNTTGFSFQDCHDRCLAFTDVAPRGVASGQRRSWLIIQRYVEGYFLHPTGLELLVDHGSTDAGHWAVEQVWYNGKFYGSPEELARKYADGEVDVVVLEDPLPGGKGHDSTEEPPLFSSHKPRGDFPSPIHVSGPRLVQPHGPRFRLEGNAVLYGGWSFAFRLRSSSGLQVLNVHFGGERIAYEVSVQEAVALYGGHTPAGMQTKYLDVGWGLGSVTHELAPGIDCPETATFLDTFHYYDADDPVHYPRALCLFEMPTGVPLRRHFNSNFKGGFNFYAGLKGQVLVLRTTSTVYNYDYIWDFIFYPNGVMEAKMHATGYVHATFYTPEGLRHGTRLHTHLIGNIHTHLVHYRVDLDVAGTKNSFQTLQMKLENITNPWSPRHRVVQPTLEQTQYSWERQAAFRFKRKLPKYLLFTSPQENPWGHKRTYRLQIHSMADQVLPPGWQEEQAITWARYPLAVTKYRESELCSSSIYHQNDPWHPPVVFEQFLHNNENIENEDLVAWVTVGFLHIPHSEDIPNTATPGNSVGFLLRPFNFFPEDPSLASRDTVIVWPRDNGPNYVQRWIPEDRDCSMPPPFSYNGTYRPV
Procedure, shortened: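 Inhibition of recombinant human diamine oxidase (DAO, R&D systems) was assessed by the same approach as the VAP-1 assay, using 1 mM putrescine as substrate. Hydrogen peroxide formed was detected through an HRP-coupled Amplex Red reaction yielding fluorescent resorufin, read at 544 nm excitation and 590 nm emission. IC50 values came from four-parameter logistic fitting in GraphPad Prism.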

[2] = target: T2, recombinant human MAO-B (monoamine oxidase-B) (Homo sapiens, UniProt P27338); assay: Activity on recombinant human MAO-B, method similar to the VAP-1 assay; settings: substrate 1 mM benzylamine; read-out: Inhibitory Activity (IC50, nM) MAO-B
T2 construct: purchased Sigma-Aldrich
T2 sequence (P27338 1-520): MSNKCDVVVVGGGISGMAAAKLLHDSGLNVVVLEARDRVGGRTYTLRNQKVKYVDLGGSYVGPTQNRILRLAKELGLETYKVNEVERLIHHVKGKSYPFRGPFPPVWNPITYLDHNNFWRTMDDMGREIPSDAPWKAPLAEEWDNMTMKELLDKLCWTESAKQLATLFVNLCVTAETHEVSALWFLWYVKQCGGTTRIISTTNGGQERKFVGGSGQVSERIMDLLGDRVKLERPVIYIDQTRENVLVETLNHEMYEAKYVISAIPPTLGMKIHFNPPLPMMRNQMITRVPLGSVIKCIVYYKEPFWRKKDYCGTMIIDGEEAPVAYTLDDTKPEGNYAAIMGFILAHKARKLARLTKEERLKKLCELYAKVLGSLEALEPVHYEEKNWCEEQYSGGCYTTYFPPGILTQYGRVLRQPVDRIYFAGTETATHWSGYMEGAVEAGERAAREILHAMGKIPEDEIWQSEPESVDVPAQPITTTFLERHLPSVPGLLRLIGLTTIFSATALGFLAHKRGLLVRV
Procedure, shortened: (§1)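 Fluorescence (544/590 nm) of resorufin formed from Amplex Red by HRP and enzyme-generated H2O2 was followed over 1-2 h. Substrates were 0.5 mM tyramine for MAO-A and 1 mM benzylamine for MAO-B; compounds were preincubated with enzyme for 30 min at 37° C. IC50 came from four-parameter logistic fitting of signal-rate inhibition.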

recombinant human VAP-1 = target: T3, recombinant human VAP-1 (Homo sapiens, UniProt Q16853); assay: Activity on recombinant human VAP-1, HRP-coupled Amplex Red hydrogen peroxide assay; settings: substrate 1 mM benzylamine; compound incubated with enzyme at 37° C. for 30 minutes; pH 7.4; read-out: Inhibitory Activity (IC50, nM) human VAP-1
T3 construct: purchased R&D systems
T3 sequence (Q16853 1-763): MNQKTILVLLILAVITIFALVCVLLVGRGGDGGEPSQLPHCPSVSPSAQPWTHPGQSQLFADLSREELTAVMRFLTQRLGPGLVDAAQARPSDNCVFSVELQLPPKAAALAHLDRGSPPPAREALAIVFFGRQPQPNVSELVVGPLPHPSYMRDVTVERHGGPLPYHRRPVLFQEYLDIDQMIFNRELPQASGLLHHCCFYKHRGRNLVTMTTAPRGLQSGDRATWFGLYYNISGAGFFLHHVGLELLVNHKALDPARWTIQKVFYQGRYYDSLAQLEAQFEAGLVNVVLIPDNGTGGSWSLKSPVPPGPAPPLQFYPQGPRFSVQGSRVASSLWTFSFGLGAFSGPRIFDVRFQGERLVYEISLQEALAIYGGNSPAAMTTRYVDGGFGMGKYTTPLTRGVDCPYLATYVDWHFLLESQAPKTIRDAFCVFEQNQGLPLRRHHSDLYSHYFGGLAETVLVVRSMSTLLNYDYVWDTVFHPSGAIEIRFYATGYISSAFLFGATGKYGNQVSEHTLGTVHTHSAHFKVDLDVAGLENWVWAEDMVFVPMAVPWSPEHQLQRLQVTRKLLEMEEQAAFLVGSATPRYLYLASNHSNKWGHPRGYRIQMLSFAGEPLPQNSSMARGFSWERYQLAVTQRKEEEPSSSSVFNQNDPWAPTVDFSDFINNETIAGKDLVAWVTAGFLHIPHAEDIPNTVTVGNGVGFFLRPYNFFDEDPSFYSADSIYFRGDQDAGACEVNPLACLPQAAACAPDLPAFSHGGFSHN
Procedure, shortened: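 Fluorescence of resorufin formed from H2O2 (ex 544 nm, em 590 nm) was tracked for 1-2 h after adding 1 mM benzylamine, 200 uM Amplex Red and 1 U/mL HRP to enzyme pretreated with compound for 30 min at 37 °C. IC50 values derive from four-variable logistic fits.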

[3] = target: T4, recombinant human MAO-A (monoamine oxidase-A) (Homo sapiens, UniProt P21397); assay: Activity on recombinant human MAO-A, method similar to the VAP-1 assay; settings: substrate 0.5 mM tyramine; read-out: Inhibitory Activity (IC50, nM) MAO-A
T4 construct: purchased Sigma-Aldrich
T4 sequence (P21397 1-527): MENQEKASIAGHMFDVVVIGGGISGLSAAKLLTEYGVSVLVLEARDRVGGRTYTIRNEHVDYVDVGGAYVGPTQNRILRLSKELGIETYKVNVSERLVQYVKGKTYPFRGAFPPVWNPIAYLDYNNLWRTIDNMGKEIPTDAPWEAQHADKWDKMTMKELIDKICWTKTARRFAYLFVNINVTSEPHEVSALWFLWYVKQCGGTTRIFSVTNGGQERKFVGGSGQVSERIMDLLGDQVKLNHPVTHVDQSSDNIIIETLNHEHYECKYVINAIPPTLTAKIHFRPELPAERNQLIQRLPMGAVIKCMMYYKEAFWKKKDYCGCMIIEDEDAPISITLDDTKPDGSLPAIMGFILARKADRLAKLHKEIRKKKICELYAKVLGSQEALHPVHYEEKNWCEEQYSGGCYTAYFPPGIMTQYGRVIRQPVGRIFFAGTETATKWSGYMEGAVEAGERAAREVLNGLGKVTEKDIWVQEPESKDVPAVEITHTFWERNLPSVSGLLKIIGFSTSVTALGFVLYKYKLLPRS
Procedure, shortened: as §1

SMILES | IC50 [1] [nM] | IC50 [2] [nM] | IC50 (recombinant human VAP-1) [nM] | IC50 [3] [nM]
CC(=O)c1ccc(-c2ccc(Cn3cnn(C/C(=C/F)CN)c3=O)s2)s1 [Example 155, 4-[(5′-acetyl-2,2′-bithiophen-5-yl)methyl]-2-[(2E)-2-(aminomethyl)-3-fluoroprop-2-en-1-yl]-2,4-dihydro-3H-1,2,4-triazol-3-one] | 950 | 470 | 0.4 | > 100000
Cn1nccc1-c1ccc(Cn2cnn(C/C(=C/F)CN)c2=O)s1 [Example 156, 2-[(2E)-2-(aminomethyl)-3-fluoroprop-2-en-1-yl]-4-{[5-(1-methyl-1H-pyrazol-5-yl)thiophen-2-yl]methyl}-2,4-dihydro-3H-1,2,4-triazol-3-one] | 1300 | 28 | 4.2 | > 100000
Cc1nn(C)cc1-c1ccc(Cn2cnn(C/C(=C/F)CN)c2=O)s1 [Example 157, 2-[(2E)-2-(aminomethyl)-3-fluoroprop-2-en-1-yl]-4-{[5-(1,3-dimethyl-1H-pyrazol-4-yl)thiophen-2-yl]methyl}-2,4-dihydro-3H-1,2,4-triazol-3-one] | 1700 | 330 | 2.6 | > 100000
Cc1cc(-c2ccc(Cn3cnn(C/C(=C/F)CN)c3=O)s2)n(C)n1 [Example 158, 2-[(2E)-2-(aminomethyl)-3-fluoroprop-2-en-1-yl]-4-{[5-(1,3-dimethyl-1H-pyrazol-5-yl)thiophen-2-yl]methyl}-2,4-dihydro-3H-1,2,4-triazol-3-one] | 340 | 430 | 1.9 | > 100000
CN1CCC(n2cc(-c3ccc(Cn4cnn(C/C(=C/F)CN)c4=O)s3)cn2)CC1 [Example 159, 2-[(2E)-2-(aminomethyl)-3-fluoroprop-2-en-1-yl]-4-({5-[1-(1-methylpiperidin-4-yl)-1H-pyrazol-4-yl]thiophen-2-yl}methyl)-2,4-dihydro-3H-1,2,4-triazol-3-one] | 1200 | > 100000 | 4.3 | > 100000
NC/C(=C\F)Cn1ncn(Cc2ccc(-c3ccncc3)s2)c1=O [Example 160, 2-[(2E)-2-(aminomethyl)-3-fluoroprop-2-en-1-yl]-4-{[5-(pyridin-4-yl)thiophen-2-yl]methyl}-2,4-dihydro-3H-1,2,4-triazol-3-one] | 1100 | 51 | 2.2 | > 100000
CC(C)n1nccc1-c1ccc(Cn2cnn(C/C(=C/F)CN)c2=O)s1 [Example 161, 2-[(2E)-2-(aminomethyl)-3-fluoroprop-2-en-1-yl]-4-({5-[1-(propan-2-yl)-1H-pyrazol-5-yl]thiophen-2-yl}methyl)-2,4-dihydro-3H-1,2,4-triazol-3-one] | 4300 | 15 | 3.7 | > 100000
Cn1nc(C(F)(F)F)cc1-c1ccc(Cn2cnn(C/C(=C/F)CN)c2=O)s1 [Example 162, 2-[(2E)-2-(aminomethyl)-3-fluoroprop-2-en-1-yl]-4-({5-[1-methyl-3-(trifluoromethyl)-1H-pyrazol-5-yl]thiophen-2-yl}methyl)-2,4-dihydro-3H-1,2,4-triazol-3-one] | 250 | 250 | 3.2 | > 100000
NC/C(=C\F)Cn1ncn(Cc2ccc(C3=CCNCC3)s2)c1=O [Example 163, 2-[(2E)-2-(aminomethyl)-3-fluoroprop-2-en-1-yl]-4-{[5-(1,2,3,6-tetrahydropyridin-4-yl)thiophen-2-yl]methyl}-2,4-dihydro-3H-1,2,4-triazol-3-one] | 300 | 5500 | 2.1 | > 100000
NC/C(=C\F)Cn1ncn(Cc2ccc(-c3csc(CO)c3)s2)c1=O [Example 164, 2-[(2E)-2-(aminomethyl)-3-fluoroprop-2-en-1-yl]-4-{[5′-(hydroxymethyl)-2,3′-bithiophen-5-yl]methyl}-2,4-dihydro-3H-1,2,4-triazol-3-one] | 6800 | 170 | 2.5 | > 100000
Cc1cscc1-c1ccc(Cn2cnn(C/C(=C/F)CN)c2=O)s1 [Example 165, 2-[(2E)-2-(aminomethyl)-3-fluoroprop-2-en-1-yl]-4-[(4′-methyl-2,3′-bithiophen-5-yl)methyl]-2,4-dihydro-3H-1,2,4-triazol-3-one] | 5300 | 2.8 | 7.5 | > 100000
NC/C(=C\F)Cn1ncn(Cc2ccc(-c3ccc(N)cc3)s2)c1=O [Example 166, 2-[(2E)-2-(aminomethyl)-3-fluoroprop-2-en-1-yl]-4-{[5-(4-aminophenyl)thiophen-2-yl]methyl}-2,4-dihydro-3H-1,2,4-triazol-3-one] | 14000 | 1300 | 7.7 | > 100000
